Reference: patent publication US4340543A, “Sulfonium compounds” (Taiho Pharmaceutical Company Limited, priority 1980, dated 1982)

Columns and labels:
[1] = system: Meth-A cells; assay: Antitumor activity on a syngenic Meth-A tumor (tumor weight, i.v.); format: in vivo, male BALB/C mice; details: 7 consecutive days, day 17
Method: (1) Antitumor activity on a syngenic Meth-A tumor.
(§1) Ten male BALB/C mice in each group, weighing 25-30 g, were subcutaneously inoculated with 2×10^4 Meth-A cells. A solution of the compound in physiological saline was injected intravenously at the dose shown in Table 4 below once a day for consecutive 7 days starting with the next day of the tumor inoculation. Seventeen days after the tumor inoculation, mice were sacrificed, and tumors were weighed.
Growth inhibition was assessed, tumor weight in the treated mice divided by tumor weight in the control mice.

[2] = system: sarcoma 180 cells; assay: Antitumor activity on sarcoma 180 (tumor weight, i.v.); format: in vivo, male ICR mice; details: 10 consecutive days, day 17
Method: (2) antitumor activity on sarcoma 180
as §1, with “ICR” for “BALB/C”, “30-35” for “25-30”, “5×10^5 sarcoma 180” for “2×10^4 Meth-A”, “5” for “4”, “for 10” for “for”, “consecutive” for “consecutive 7”

[3] = system: transplantable fibrosarcoma induced by 3-methylcholanthrene; assay: Antitumor activity on a 3-methylcholanthrene-induced transplantable tumor (tumor weight, i.v.); format: in vivo, male C57BL/6 mice; details: every other day 5 times, day 21
Method: (3) Antitumor activity on a 3-methylcholanthrene-induced transplantable tumor.
Ten male C57BL/6 mice in each group weighing 20-25 g were subcutaneously inoculated with 5×10^4 or 1×10^5 cells of transplantable fibrosarcoma, which was induced in C57BL/6 strain by 3-methylcholanthrene and maintained syngenetically in ascites form. A solution of the compound in physiological saline was injected intravenously at the dose shown in Table 6 below every other day 5 times, starting with the next day of the tumor inoculation. Twenty-one days after the tumor inoculation, mice were sacrificed and tumors were weighed.

[4] = system: spleen hemolytic plaque forming cells; assay: Effect on humoral response (hemolytic plaque forming cells, sheep red blood cells, i.p.); format: in vivo, male BALB/C mice; details: for Increase (hemolytic plaque forming cells vs saline control) / Cell count/spleen (hemolytic plaque forming cells): day 0 to 4; for Cell count/spleen (hemolytic plaque forming cells): counted day 5
Method: (4) Effect on humoral response
Ten male BALB/C mice in each group, weighing 25-30 g, were intravenously injected with 1×10^7 sheep red blood cells on day 0. A solution of the compound in physiological saline was injected intraperitoneally at the dose shown in Table 7 below from day 0 to day 4.
On day 5, spleen hemolytic plaque forming cells were counted by the technique of Jerne et al (Science, 140, 405, 1963) modified by Cunningham et al (Immunology, 14, 599, 1968).

[5] = system: delayed hypersensitivity response; assay: Effect on a cell-mediated response (picryl chloride delayed hypersensitivity, ear swelling, oral); format: in vivo, male BALB/C mice; details: for Increase relative to control group (ear swelling) / Increase of swelling (× 10^-4): 7 days; for Increase of swelling (× 10^-4): 24 hours after challenge; for effect on the delayed hypersensitivity response (in words): oral, Table 8 doses
Method: (5) Effect on a cell-mediated response
Ten male BALB/C mice in each group, weighing in 20-25 g, were used. Mice were immunized by applying the skin of the clipped abdomen with 0.1 ml of 7% picryl chloride in absolute alcohol on day 0, and challenge was with 0.02 ml of 1% picryl chloride in olive oil applied to the ear on day 7. The ear was measured again 24 hours later by a dial thickness gauge. A solution of the compound in water was orally administered at the dose shown in Table 8 below daily for seven consecutive days starting with day 1.

[6] = Acute toxicity test (up-down method, i.v.); details: mouse, in vivo, iv, male ddy mice
Method: Male ddy mice weighing 20 g were used. A solution of the compound in physiological saline was injected intravenously. The dose lethal to 50% of mice was determined by the up-down method.

[7] = 3 mg/kg/day i.v., cell count 1 × 10^5

C[S+](C)CC1CCCO1 (centres unmarked) [Compound 1, methylene(tetrahydro-2-furanyl)dimethylsulfonium p-toluenesulfonate]
Inhibition (Meth-A tumor growth) ([1]; 0.8 mg/kg/day i.v.): 39.9% | Inhibition (Meth-A tumor growth) ([1]; 4.0 mg/kg/day i.v.): 63.9% | Inhibition (sarcoma 180 growth) ([2]; 0.8 mg/kg/day i.v.): 66.4% | Inhibition (fibrosarcoma growth) ([3]; 10 mg/kg/day i.v., cell count 5 × 10^4): 71.5% | Increase (hemolytic plaque forming cells vs saline control) ([4]; 2.5 mg/kg/day i.p.): 52.6% | Cell count/spleen (hemolytic plaque forming cells) ([4]; 2.5 mg/kg/day i.p.): 322 ± 75.2 | Increase (hemolytic plaque forming cells vs saline control) ([4]; 10 mg/kg/day i.p.): 35.1% | Cell count/spleen (hemolytic plaque forming cells) ([4]; 10 mg/kg/day i.p.): 285 ± 113.5 | Increase (hemolytic plaque forming cells vs saline control) ([4]; 40 mg/kg/day i.p.): 85.8% | Cell count/spleen (hemolytic plaque forming cells) ([4]; 40 mg/kg/day i.p.): 392 ± 91.4 | increase in the number of hemolytic plaque forming cells (in words) ([4]; at the doses of 2.5 mg/kg and 40 mg/kg, i.p.): significant increases | Increase relative to control group (ear swelling) ([5]; 20 mg/kg/day oral): -3.4% | Increase of swelling (× 10^-4) ([5]; 20 mg/kg/day oral): 34.2 ± 6.0 × 10^-4 | Increase relative to control group (ear swelling) ([5]; 100 mg/kg/day oral): 43.5% | Increase of swelling (× 10^-4) ([5]; 100 mg/kg/day oral): 50.8 ± 13.4 × 10^-4 | Increase relative to control group (ear swelling) ([5]; 500 mg/kg/day oral): 11.0% | Increase of swelling (× 10^-4) ([5]; 500 mg/kg/day oral): 39.3 ± 9.8 × 10^-4 | effect on the delayed hypersensitivity response (in words) [5]: augment the delayed hypersensitivity response | LD50 [6]: 130 mg/kg

CCCC[S+](C)CC1CCCO1 (centres unmarked) [Compound 12]
Inhibition (fibrosarcoma growth) [3, 7]: 44.3% | LD50 [6]: 90 mg/kg

C[S+](CCOC(=O)c1ccccc1)CC1CCCO1 (centres unmarked) [Compound 27]
Inhibition (sarcoma 180 growth) ([2]; 0.4 mg/kg/day i.v.): 75.7% | LD50 [6]: 94 mg/kg

C[S+](C)CCC1CCCO1 (centres unmarked) [Compound 29, ethylene(tetrahydro-2-furanyl)dimethylsulfonium p-toluenesulfonate]
Inhibition (Meth-A tumor growth) ([1]; 0.4 mg/kg/day i.v.): 60.7% | Inhibition (Meth-A tumor growth) ([1]; 2.0 mg/kg/day i.v.): 69.8% | Inhibition (Meth-A tumor growth) ([1]; 10.0 mg/kg/day i.v.): 39.6% | Inhibition (fibrosarcoma growth) [3, 7]: 66.7% | Increase relative to control group (ear swelling) ([5]; 20 mg/kg/day oral): 26.0% | Increase of swelling (× 10^-4) ([5]; 20 mg/kg/day oral): 44.8 ± 9.5 × 10^-4 | Increase relative to control group (ear swelling) ([5]; 100 mg/kg/day oral): 35.3% | Increase of swelling (× 10^-4) ([5]; 100 mg/kg/day oral): 47.9 ± 13.2 × 10^-4 | Increase relative to control group (ear swelling) ([5]; 500 mg/kg/day oral): -11.6% | Increase of swelling (× 10^-4) ([5]; 500 mg/kg/day oral): 31.3 ± 13.5 × 10^-4 | effect on the delayed hypersensitivity response (in words) [5]: augment the delayed hypersensitivity response | LD50 [6]: 131 mg/kg

C[S+](C)CCCC1CCCO1 (centres unmarked) [Compound 46]
Inhibition (Meth-A tumor growth) ([1]; 0.2 mg/kg/day i.v.): 58.1% | LD50 [6]: 13.2 mg/kg

C[S+](C)CC1CCCCO1 (centres unmarked) [Compound 50, methylene(tetrahydro-2-pyranyl)dimethylsulfonium p-toluenesulfonate]
Inhibition (sarcoma 180 growth) ([2]; 3.0 mg/kg/day i.v.): 73.3% | LD50 [6]: 135 mg/kg

C[S+](C)CCC1CCCCO1 (centres unmarked) [Compound 58]
Inhibition (Meth-A tumor growth) ([1]; 2.0 mg/kg/day i.v.): 49.2% | LD50 [6]: 80 mg/kg
